{"source": "patent US6288040A", "about": "“Medicament excipient particles for tissue-specific application of a medicament” (DSS Drug Delivery Service Gesellschaft zur Forderung der …, priority 1997, dated 2001)", "origin": "cited, not measured here", "test_system": "mice", "conditions": "free dalargin, high dosage 20 mg/kg", "note": "Non-standard residues stand in square brackets, D forms with d. No end group written: not given here.", "data": [{"substance": "Tyr-D-Ala-Gly-Phe-Leu-Arg (Y[dA]GFLR) [dalargin, hexapeptide, leu-enkephalin-analogon, opioid receptor agonist]", "values": [{"measurement": "analgesic effect after i.v. administration of dalargin", "result": "does not lead to an analgesic effect"}]}]}
